Experimental findings from US8624034B2, “Fluoro-pyridinone derivatives useful as antibacterial agents” (Pfizer Inc., priority 2011, dated 2014) are described below.

In test [1] the test system is Escherichia coli EC-1: VOGEL, mouse virulent. Put plainly: MIC determination, EC-1. It counts as cell-based. The conditions noted are these: Escherichia coli, read-out: EC-1 (MIC), Table 2, lower of duplicate values. An outline of the steps: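 MIC against mouse-virulent E. coli EC-1 (VOGEL) was determined by CLSI M7-A8 broth dilution with 2-fold drug increments and overnight incubation. The MIC is the lowest concentration with no visible growth versus drug-free control. Tests were run in duplicate and the lower value reported if within 2-fold, with QC organisms and reference drugs in each run.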

In test [2] the test system is Acinetobacter baumannii/haemolyticus, multidrug-resistant clinical isolate (AB-3167). Briefly: MIC determination, AB-3167. It counts as cell-based. The conditions noted are these: Table 2, lower of duplicate values. The procedure, abridged:
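Broth dilution MIC per CLSI M7-A8, 2-fold drug series, overnight incubation, lowest concentration visibly inhibiting growth against drug-free control. Run in duplicate, lower value reported; duplicates differing >2-fold repeated; QC strains and reference compounds required in range.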

Test [3] relates to Pseudomonas aeruginosa UI-18: wild-type (PA-7). Put plainly: MIC determination, PA-7. It counts as cell-based. To be noted: Table 2, lower of duplicate values. As for the experimental part:
The in vitro antibacterial activity of compounds described in the Examples was evaluated by minimum inhibitory concentration (MIC) testing according to Clinical and Laboratory Standards Institute (CLSI). See: Clinical and Laboratory Standards Institute. Methods for Dilution Antimicrobial Susceptibility Tests for Bacteria that Grow Aerobically; Approved Standard-Eighth Edition. CLSI document M7-A8 [ISBN 1-56238-689-1]. Clinical and Laboratory Standards Institute, 940 West Valley Road, Suite 1400, Wayne, Pa. 19087-1898 USA, 2006; also Clinical and Laboratory Standards Institute. Performance Standards for Antimicrobial Susceptibility Testing; Twentieth Informational Supplement. CLSI document M100-S20 [ISBN 1-56238-716-2]. Clinical and Laboratory Standards Institute.
The MIC determination is a standard laboratory method for evaluating the antibacterial activity of a compound. The MIC represents the lowest drug concentration that inhibits visible growth of bacteria following overnight incubation. […] Typically, the drug concentration range is broken down into 2-fold increments (e.g. 0.06 μg/mL, 0.12 μg/mL. 0.25 μg/mL, 0.50 μg/mL, 1.0 μg/mL, etc.) and the various drug concentrations are all individually incubated overnight with approximately the same number of bacteria. The MIC is then determined by visually inspecting the drug effect at each concentration, and identifying the lowest drug concentration that has inhibited bacterial growth as compared to the drug free control. Typically, bacteria continue to grow at drug concentrations lower than the MIC and don't grow at concentrations at and above the MIC.
The MIC values described in Table 2 and 3 below were derived from assays wherein each test compound was evaluated in duplicate. In cases where the duplicate values varied by 0-2-fold, the lower of the two values was reported below. Generally speaking, if the duplicate values varied by more than 2-fold, the assay was considered non-valid and was repeated until the variation between duplicate runs was ≦2-fold. In line with the CLSI guidelines referred to above, both control organisms and reference compounds were utilized in each MIC assay to provide proper quality control. MIC values generated with these control organisms and reference compounds were required to fall within a defined range for the assay to be considered valid and be included herein. Those skilled in the art will recognize that MIC values can and do vary from experiment to experiment. Generally speaking, it should be recognized that MIC values often vary +/−2-fold from experiment to experiment. While a single MIC is reported for each compound and each microorganism, the reader should not conclude that each compound was only tested once. Several of the compounds were subjected to multiple tests. The data reported in Tables 2 and 3 is reflective of the compounds relative activity and different MICs may have been generated on these occasions in line with the guidelines described above.
The following bacterial strains were used in these MIC determinations:
1) Pseudomonas aeruginosa UI-18: Wild-type, labeled as PA-7 in Tables 2 and 3;

Test [4] deals with T1, Pseudomonas aeruginosa LpxC enzyme (Pseudomonas aeruginosa, UniProt P47205).
T1 construct: made in house; host or cells: E. coli
T1 sequence (P47205 1-303): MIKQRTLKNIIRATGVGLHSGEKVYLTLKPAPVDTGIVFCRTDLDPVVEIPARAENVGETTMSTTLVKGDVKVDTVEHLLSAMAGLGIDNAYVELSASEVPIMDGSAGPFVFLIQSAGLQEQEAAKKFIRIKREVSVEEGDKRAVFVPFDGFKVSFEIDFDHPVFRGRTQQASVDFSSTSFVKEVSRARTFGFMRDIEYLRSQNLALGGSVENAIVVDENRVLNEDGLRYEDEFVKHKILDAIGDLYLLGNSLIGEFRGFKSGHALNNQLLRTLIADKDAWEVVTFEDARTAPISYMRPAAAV
Briefly: IC50 assay, LpxC enzyme from P. aeruginosa (PA LpxC enzyme IC50). It counts as biochemical. To be noted: LpxC enzyme 0.1 nM, 25° C., 1 hour. An outline of the steps:
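The LpxC reaction ran 1 hour and was stopped with HCl. Substrate-to-product conversion was measured by RapidFire mass spectrometry, and IC50 values were calculated from percent conversion relative to a no-enzyme control.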

Values after ≈ are worked out from the molar mass of the structure shown. Read-outs that look alike come from different tables or passages of the source.

Regarding `COc1cnn(-c2ccc(-c3cc(=O)n(CC[C@](C)(C(=O)NO)S(C)(=O)=O)cc3F)cc2)n1` [Example 22, (2R)-4-{5-Fluoro-4-[4-(4-methoxy-2H-1,2,3-triazol-2-yl)phenyl]-2-oxopyridin-1(2H)-yl}-N-hydroxy-2-methyl-2-(methylsulfonyl)butanamide], the MIC in test [1] is at most 0.06 µg/mL; in test [2] it was over 64 µg/mL; in test [3], 0.5 µg/mL (≈ 1.04 µM). Besides, the IC50 in test [4] (Table 2, read-out: PA:IC50) was 0.181 nM.

As for `C[C@@](CCn1cc(F)c(-c2ccccc2F)cc1=O)(C(=O)NO)S(C)(=O)=O` [Example 4, (2R)-4-[5-Fluoro-4-(2-fluorophenyl)-2-oxopyridin-1(2H)-yl]-N-hydroxy-2-methyl-2-(methylsulfonyl)butanamide], the MIC was 2 µg/mL (≈ 4.99 µM) in test [1], over 64 µg/mL in test [2] and 0.5 µg/mL (≈ 1.25 µM) in test [3]. Moreover, the IC50 in test [4] (Table 2, read-out: PA:IC50) came out at 0.717 nM.

On to `C[C@@](CCn1cc(F)c(-c2cccc(Oc3nccs3)c2)cc1=O)(C(=O)NO)S(C)(=O)=O` [Example 49, (2R)-4-{5-Fluoro-2-oxo-4-[3-(1,3-thiazol-2-yloxy)phenyl]pyridin-1(2H)-yl}-N-hydroxy-2-methyl-2-(methylsulfonyl)butanamide], for which the values for the MIC in test [1], in test [2] and in test [3] were 0.25 µg/mL (≈ 0.519 µM), over 64 µg/mL and 2 µg/mL (≈ 4.15 µM), respectively. Also, in test [4] (Table 2, read-out: PA:IC50), the IC50 turned out to be 0.758 nM.

As to `C[C@@](CCn1cc(F)c(-c2ccc(F)cc2)cc1=O)(C(=O)NO)S(C)(=O)=O` [Example 31, (2R)-4-[5-Fluoro-4-(4-fluorophenyl)-2-oxopyridin-1(2H)-yl]-N-hydroxy-2-methyl-2-(methylsulfonyl)butanamide], the MIC was 1 µg/mL (≈ 2.5 µM) in test [1], over 64 µg/mL in test [2] and 0.5 µg/mL (≈ 1.25 µM) in test [3]. For the same molecule, the IC50 in test [4] (Table 2, read-out: PA:IC50) came to 0.213 nM.

In the case of `C[C@@](CCn1cc(F)c(-c2ccc(OC(F)F)c(F)c2)cc1=O)(C(=O)NO)S(C)(=O)=O` [Example 35, (2R)-4-{4-[4-(difluoromethoxy)-3-fluorophenyl]-5-fluoro-2-oxopyridin-1(2H)-yl}-N-hydroxy-2-methyl-2-(methylsulfonyl)butanamide], the MIC was 1 µg/mL (≈ 2.14 µM) in test [1], over 64 µg/mL in test [2] and 0.5 µg/mL (≈ 1.07 µM) in test [3]. Also, the IC50 in test [4] (Table 2, read-out: PA:IC50) amounted to 0.589 nM.

In the case of `C[C@@](CCn1cc(F)c(-c2ccc(OC(F)F)cc2)cc1=O)(C(=O)NO)S(C)(=O)=O` [Example 33, (2R)-4-{4-[4-(Difluoromethoxy)phenyl]-5-fluoro-2-oxopyridin-1(2H)-yl}-N-hydroxy-2-methyl-2-(methylsulfonyl)butanamide], the MIC in test [1] was 0.5 µg/mL (≈ 1.12 µM); in test [2], over 64 µg/mL; in test [3], 0.5 µg/mL (≈ 1.12 µM). The IC50 in test [4] (Table 2, read-out: PA:IC50) came to 0.0606 nM.

`CSc1ccc(-c2cc(=O)n(CC[C@](C)(C(=O)NO)S(C)(=O)=O)cc2F)cc1` [Example 9, (2R)-4-{5-Fluoro-4-[4-(methylthio)phenyl]-2-oxopyridin-1(2H)-yl}-N-hydroxy-2-methyl-2-(methylsulfonyl)butanamide]: the MIC in test [1] was 0.25 µg/mL (≈ 0.583 µM); in test [2] it was over 64 µg/mL; in test [3], 0.5 µg/mL (≈ 1.17 µM). This molecule gave an IC50 in test [4] (PA:IC50, Table 2) of 0.51 nM.

`Cc1ccc(-c2cc(=O)n(CC[C@](C)(C(=O)NO)S(C)(=O)=O)cc2F)cc1` [Example 29, (2R)-4-[5-Fluoro-4-(4-methylphenyl)-2-oxopyridin-1(2H)-yl]-N-hydroxy-2-methyl-2-(methylsulfonyl)butanamide]: the MIC in test [1] is 0.5 µg/mL (≈ 1.26 µM); in test [2] it was over 64 µg/mL; in test [3] it was 0.5 µg/mL (≈ 1.26 µM). Also, the 50% inhibitory concentration (IC50) in test [4] (Table 2, read-out: PA:IC50) came to 0.514 nM.

On to `C[C@@](CCn1cc(F)c(-c2ccc(OC3COC3)cc2)cc1=O)(C(=O)NO)S(C)(=O)=O` [Example 15, (2R)-4-{5-fluoro-4-[4-(oxetan-3-yloxy)phenyl]-2-oxopyridin-1(2H)-yl}-N-hydroxy-2-methyl-2-(methylsulfonyl)butanamide], for which the MIC in test [1] is 16 µg/mL (≈ 35.2 µM); in test [2] it was over 64 µg/mL; in test [3], 16 µg/mL (≈ 35.2 µM). The IC50 in test [4] (Table 2, read-out: PA:IC50) was 2.05 nM.

For `COc1ccc(-c2ccc(-c3cc(=O)n(CC[C@](C)(C(=O)NO)S(C)(=O)=O)cc3F)cc2)cn1` [Example 32, (2R)-4-{5-Fluoro-4-[4-(6-methoxypyridin-3-yl)phenyl]-2-oxopyridin-1(2H)-yl}-N-hydroxy-2-methyl-2-(methylsulfonyl)butanamide], the minimum inhibitory concentration (MIC) in test [1] is at most 0.06 µg/mL; in test [2], over 64 µg/mL; in test [3], 1 µg/mL (≈ 2.04 µM). The IC50 in test [4] (Table 2, read-out: PA:IC50) worked out at 0.4 nM.

As to `C[C@@](CCn1cc(F)c(-c2ccc(Cl)cc2F)cc1=O)(C(=O)NO)S(C)(=O)=O` [Example 16, (2R)-4-[4-(4-Chloro-2-fluorophenyl)-5-fluoro-2-oxopyridin-1(2H)-yl]-N-hydroxy-2-methyl-2-(methylsulfonyl)butanamide], the values for the MIC in test [1], in test [2] and in test [3] were 0.25 µg/mL (≈ 0.575 µM), over 64 µg/mL and 0.5 µg/mL (≈ 1.15 µM), respectively. Also, the IC50 in test [4] (Table 2, read-out: PA:IC50) was determined as 0.336 nM.

Consider `[2H]C([2H])([2H])c1ccc(-c2cc(=O)n(CC[C@](C)(C(=O)NO)S(C)(=O)=O)cc2F)cc1` [Example 43, (2R)-4-[5-Fluoro-4-(4-trideuteromethylphenyl)-2-oxopyridin-1(2H)-yl]-N-hydroxy-2-methyl-2-(methylsulfonyl)butanamide], for which the MIC is 0.25 µg/mL (≈ 0.626 µM) in test [1], over 64 µg/mL in test [2] and 0.5 µg/mL (≈ 1.25 µM) in test [3]. Besides, the IC50 in test [4] (Table 2, read-out: PA:IC50) stood at 0.653 nM.

Take `C[C@@](CCn1cc(F)c(-c2ccc(F)c(F)c2)cc1=O)(C(=O)NO)S(C)(=O)=O` [Example 6, (2R)-4-[4-(3,4-Difluorophenyl)-5-fluoro-2-oxopyridin-1(2H)-yl]-N-hydroxy-2-methyl-2-(methylsulfonyl)butanamide]: the figures for the MIC in test [1], in test [2] and in test [3] were 1 µg/mL (≈ 2.39 µM), over 64 µg/mL and 0.5 µg/mL (≈ 1.2 µM), respectively. Further, the IC50 in test [4] (Table 2, read-out: PA:IC50) turned out to be 0.833 nM.

Consider `C[C@@](CCn1cc(F)c(-c2ccc(S(F)(F)(F)(F)F)cc2)cc1=O)(C(=O)NO)S(C)(=O)=O` [Example 12, (2R)-4-{5-Fluoro-2-oxo-4-[4-(pentafluoro-6λ-sulfanyl)phenyl]pyridin-1(2H)-yl}-N-hydroxy-2-methyl-2-(methylsulfonyl)butanamide], for which the MIC is 4 µg/mL (≈ 7.87 µM) in test [1], over 64 µg/mL in test [2] and 4 µg/mL (≈ 7.87 µM) in test [3]. Also, the IC50 in test [4] (Table 2, read-out: PA:IC50) amounted to 1.14 nM.

Consider `Cc1cc(-c2cc(=O)n(CC[C@](C)(C(=O)NO)S(C)(=O)=O)cc2F)ccc1-n1nccn1` [Example 37, (2R)-4-{5-Fluoro-4-[3-methyl-4-(2H-1,2,3-triazol-2-yl)phenyl]-2-oxopyridin-1(2H)-yl}-N-hydroxy-2-methyl-2-(methylsulfonyl)butanamide], for which the MIC is 0.5 µg/mL (≈ 1.08 µM) in test [1], over 64 µg/mL in test [2] and 1 µg/mL (≈ 2.16 µM) in test [3].

As to `C[C@@](CCn1cc(F)c(-c2ccc3c(c2)OC(F)(F)O3)cc1=O)(C(=O)NO)S(C)(=O)=O` [Example 47, (2R)-4-[4-(2,2-Difluoro-1,3-benzodioxol-5-yl)-5-fluoro-2-oxopyridin-1(2H)-yl]-N-hydroxy-2-methyl-2-(methylsulfonyl)butanamide], the figures for the MIC in test [1], in test [2] and in test [3] were 0.25 µg/mL (≈ 0.541 µM), over 64 µg/mL and 0.5 µg/mL (≈ 1.08 µM), respectively.
